{"source": "patent US20240272142A1", "about": "“METHOD FOR DETERMINING WHITENING EFFICACY OF COSMETIC RAW MATERIAL AND USE THEREOF” (SHENZHEN INSTITUTE FOR DRUG CONTROL (SHENZHEN TESTING …, priority 2023, published 2024)", "tested_on": "mouse melanoma cells B16-F10", "assay": "Relative melanin content of B16-F10 cells after 24 h stimulation with α-MSH (Example 1)", "type": "cell-based", "details": "absorbance at 405 nm relative to blank group, three replicate values", "method": "The results in the examples of the present disclosure are all expressed in terms of a relative melanin content: the relative melanin content=absorbance of the experimental group/absorbance of the blank group×100%.\n• (1) A cell suspension of B16-F10 cells in a logarithmic growth phase was inoculated into 6-well plates in a cell density of 2×10^5 cells/mL, with an amount being 2 mL in each well, and then added into a 5% carbon dioxide incubator and cultured at a temperature of 37° C. for 24 h. • (2) A medium contained in the 6-well plates was removed, the B16-F10 cells were washed with 2 mL of the PBS, 2 mL of substances from each of the following groups each were added into each well of the 6-well plates, and then cultured in the 5% carbon dioxide incubator at a temperature of 37° C. for 24 h.\nBlank group: 2 mL of a basal DMEM was added into each well.\nModel group: 2 mL of a-MSH solutions with different concentrations (0.5 μM, 1 μM, 2.5 μM, 5 μM, and 10 μM) were separately added into each well. • (3) Determination of a relative melanin content: the basal DMEM in the 6-well plates was removed by using a sterile pipette, the B16-F10 cells were washed with 2 mL of the PBS, and digested with 400 μL of trypsin; then the digesting was terminated with 1 mL of a complete DMEM; the B16-F10 cells were collected into centrifuge tubes, and centrifuged at 2,500 rpm for 10 min; a resulting supernatant after centrifugation was discarded, the resulting B16-F10 cells were centrifuged with 1,000 μL of the PBS for a second time, 500 μL of a 1 mol/L NaOH solution (containing 10% of DMSO) was added into each of the centrifuge tubes, and subjected to water bath at a temperature of 80° C. for 1 h to obtain a product; 200 μL of the product was transferred into a 96-well plate, an absorbance at 405 nm was determined and calculated to obtain the relative melanin content.", "note": "Several values for one entry are separate records, joined by “and”; a condition that tells them apart may be missing. Identical values can stand only once."}
{"substance": "α-melanocyte-stimulating hormone [α-MSH]", "values": [{"measurement": "Relative melanin content", "setting": "α-MSH 0.5 μM", "value": "102.51% and 111.76% and 97.21%"}, {"measurement": "Relative melanin content", "setting": "α-MSH 1.0 μM", "value": "104.65% and 100.54% and 103.16%"}, {"measurement": "Relative melanin content", "setting": "α-MSH 2.5 μM", "value": "98.75% and 98.22% and 102.18%"}, {"measurement": "Relative melanin content", "setting": "α-MSH 5.0 μM", "value": "96.79% and 97.45% and 95.71%"}, {"measurement": "Relative melanin content", "setting": "α-MSH 10 μM", "value": "111.71% and 108.05% and 112.79%"}]}
